# Laboratory results: patent US20100249145A1, “Inhibitors of VEGF Receptor and HGF Receptor Signaling” (Methylgene, Inc., priority 2005, published 2010)
# How the values were obtained:
# [1] = molecular target: T1, recombinant human c-Met/HGF receptor (Homo sapiens, UniProt P08581); assay: In vitro receptor tyrosine kinase assay (DELFIA), c-Met/HGF receptor; assay type: biochemical; settings: Table 31; ATP 10 uM, enzyme 25 nM; read-out: CMet ic50
# T1 construct: His tag (histidine tag from pBlueBacHis2A); made in house; host or cells: Hi-5 cells (Trichoplusia ni), recombinant baculovirus
# T1 sequence (P08581 1078-1337): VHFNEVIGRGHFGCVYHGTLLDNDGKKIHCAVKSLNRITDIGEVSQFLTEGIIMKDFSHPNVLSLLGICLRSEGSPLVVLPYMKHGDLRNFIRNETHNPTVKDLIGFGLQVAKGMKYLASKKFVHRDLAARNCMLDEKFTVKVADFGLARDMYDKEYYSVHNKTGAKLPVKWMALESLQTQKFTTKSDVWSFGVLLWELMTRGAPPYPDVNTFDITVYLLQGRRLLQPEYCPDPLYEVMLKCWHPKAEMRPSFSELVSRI
# DU145 = DU145 scattering inhibition (HGF dependent scattering); assay type: cell-based; settings: Homo sapiens, DU-145, Table 31, read-out: DU145 scattering inhib IC50
# From the text: (§1) HGF has well known activity in terms of inducing scattering and migration (wound healing) (Wells et al., Cell Motil Cytoskeleton. 2005 November 62(3):180-94; Miura et al., Urology 2001 December 58(6):1064-9; Nishimura et al., Int J. Urol. 1998 May 5(3):276-81; Wang et al., Mol Cancer Ther. 2003 November; 2(11):1085-92; and Christensen et al., Cancer Res. 2003 Nov. 1; 63(21):7345-55).
# VEGF receptor KDR = molecular target: T2, VEGF receptor KDR (Homo sapiens, UniProt P35968); assay: In vitro receptor tyrosine kinase assay (DELFIA), VEGF receptor KDR; assay type: biochemical; settings: Table 31; ATP 0.6 uM, enzyme 5 nM; read-out: VEGFR IC50
# T2 construct: made in house; host or cells: Sf9 cells (Spodoptera frugiperda), recombinant baculovirus
# T2 sequence (P35968 806-1356): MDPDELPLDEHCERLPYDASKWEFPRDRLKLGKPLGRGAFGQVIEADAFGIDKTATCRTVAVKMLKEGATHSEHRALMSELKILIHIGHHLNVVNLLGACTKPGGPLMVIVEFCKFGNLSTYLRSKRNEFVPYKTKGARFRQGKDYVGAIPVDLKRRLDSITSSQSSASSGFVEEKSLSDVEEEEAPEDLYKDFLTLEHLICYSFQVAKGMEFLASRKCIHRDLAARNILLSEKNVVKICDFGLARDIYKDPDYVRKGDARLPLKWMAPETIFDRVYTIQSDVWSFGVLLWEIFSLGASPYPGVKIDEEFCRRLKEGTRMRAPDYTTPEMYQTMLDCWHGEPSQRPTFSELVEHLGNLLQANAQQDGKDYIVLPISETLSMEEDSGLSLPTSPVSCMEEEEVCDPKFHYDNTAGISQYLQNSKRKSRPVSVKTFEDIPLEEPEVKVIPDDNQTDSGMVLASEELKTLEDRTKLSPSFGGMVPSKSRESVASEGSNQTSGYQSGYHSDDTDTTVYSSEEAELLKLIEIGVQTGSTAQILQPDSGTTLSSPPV
# From the text: In Vitro Receptor Tyrosine Kinase Assays (c-Met/HGF receptor and VEGF Receptor KDR)
# In the case of VEGF receptor KDR a 1.6-kb cDNA corresponding to the catalytic domain of VEGFR2 or KDR (Genbank accession number AF035121 amino acid 806 to 1356) was cloned into the Pst I site of the pDEST20 Gateway vector (Invitrogen) for the production of a GST-tagged version of that enzyme.
# The GST-VEGFR2806-1356 protein was expressed in Sf9 cells (Spodoptera frugiperda) upon infection with recombinant baculovirus construct.
# The supernatant was loaded onto a GST-agarose column (Sigma) equilibrated with PBS pH 7.3. Following a four column volume (CV) wash with PBS pH 7.3+1% Triton X-100 and 4 CV wash with buffer B (50 mM Tris pH 8.0, 20% glycerol and 100 mM NaCl), bound proteins were step eluted with 5 CV of buffer B supplemented with 5 mM DTT and 15 mM glutathion. […] Final GST-VEGFR2806-1356 protein preparations concentrations were about 0.7 mg/ml with purity approximating 70%.
# A549 = A549 wound healing inhibition (HGF dependent migration); assay type: cell-based; settings: Homo sapiens, Table 31, read-out: A549 wound healing inbib IC50
# From the text: as §1
SMILES,IC50 [1],IC50 (DU145),IC50 (VEGF receptor KDR),IC50 (A549)
CN1CCN(CCN(C)Cc2ccc(-c3cc4nccc(Oc5ccc(NC(=S)NC(=O)Cc6ccccc6)cc5F)c4s3)cc2)CC1,< 50 nM,< 1000 nM,< 50 nM,< 1000 nM
CN(c1ccc(NC(=S)NC(=O)Cc2ccccc2)cc1F)c1ccnc2ccsc12,250 to 500 nM,5000 to 10000 nM,> 500 nM,5000 to 10000 nM
C#Cc1cc2nccc(Oc3ccc(NC(=S)NC(=O)Cc4ccccc4)cc3F)c2s1,50 to 250 nM,1000 to 5000 nM,> 500 nM,> 10000 nM
Cn1cnc(-c2cc3nccc(Oc4ccc(NC(=S)NC(=O)Cc5ccc(F)cc5)cc4F)c3s2)c1 [drawing 440],< 50 nM,< 1000 nM,< 50 nM,< 1000 nM
Cn1ccnc1-c1cc2nccc(Oc3ccc(NC(=S)NC(=O)Cc4ccc(F)cc4F)cc3F)c2s1,< 50 nM,< 1000 nM,< 50 nM,< 1000 nM
C#Cc1ccc(CC(=O)NC(=S)Nc2ccc(Oc3ccnc4cc(-c5ccc(CN(C)CCO)cc5)sc34)c(F)c2)cc1,50 to 250 nM,> 10000 nM,< 50 nM,> 10000 nM
COc1cccc(Nc2cc3nccc(Oc4ccc(NC(=S)NC(=O)Cc5ccccc5OC)cc4F)c3s2)c1,50 to 250 nM,1000 to 5000 nM,> 500 nM,1000 to 5000 nM
C#Cc1ccc(CC(=O)NC(=S)Nc2ccc(Oc3ccnc4cc(-c5cn(CC)cn5)sc34)c(F)c2)cc1F,50 to 250 nM,1000 to 5000 nM,< 50 nM,> 10000 nM
O=C(Cc1ccccc1)NC(=S)Nc1ccc(Oc2ccnc3cc(-c4ccc(CN5CCNCC5)cc4)sc23)c(F)c1,< 50 nM,< 1000 nM,< 50 nM,1000 to 5000 nM
Cn1cnc(-c2cc3nccc(Nc4ccc(NC(=S)NC(=O)Cc5ccccc5)cc4F)c3s2)c1,< 50 nM,< 1000 nM,> 500 nM,< 1000 nM
C=C(F)c1ccccc1CC(=O)NC(=S)Nc1ccc(Oc2ccnc3cc(-c4cn(C)cn4)sc23)c(F)c1,< 50 nM,< 1000 nM,< 50 nM,< 1000 nM
C#Cc1ccccc1CC(=O)NC(=S)Nc1ccc(Oc2ccnc3cc(-c4cccc[n+]4[O-])sc23)c(F)c1,< 50 nM,< 1000 nM,< 50 nM,< 1000 nM
Cc1ccccc1CC(=O)NC(=S)Nc1ccc(Oc2ccnc3cc(C4=CCN(C)CC4)sc23)c(F)c1,< 50 nM,< 1000 nM,250 to 500 nM,< 1000 nM
C#Cc1ccc(CC(=O)NC(=S)Nc2ccc(Oc3ccnc4cc(-c5nccn5C)sc34)c(F)c2)cc1,50 to 250 nM,> 10000 nM,50 to 250 nM,1000 to 5000 nM
CO/N=C(\C)c1cc2nccc(Oc3ccc(NC(=S)NC(=O)Cc4ccccc4)cc3F)c2s1,< 50 nM,1000 to 5000 nM,50 to 250 nM,1000 to 5000 nM
C#Cc1ccccc1CC(=O)NC(=S)Nc1ccc(Oc2ccnc3cc(-c4cn(CCN5CCCC5)cn4)sc23)c(F)c1,< 50 nM,< 1000 nM,< 50 nM,< 1000 nM
C#Cc1ccc(F)c(CC(=O)NC(=S)Nc2ccc(Oc3ccnc4cc(-c5nccn5C)sc34)c(F)c2)c1,< 50 nM,1000 to 5000 nM,< 50 nM,1000 to 5000 nM
C#Cc1ccc(F)c(CC(=O)NC(=S)Nc2ccc(Oc3ccnc4cc(-c5cn(C)cn5)sc34)c(F)c2)c1,< 50 nM,1000 to 5000 nM,< 50 nM,1000 to 5000 nM
C#Cc1cccc(F)c1CC(=O)NC(=S)Nc1ccc(Oc2ccnc3cc(-c4cn(C)cn4)sc23)c(F)c1,< 50 nM,< 1000 nM,< 50 nM,< 1000 nM
C#Cc1cc(F)ccc1CC(=O)NC(=S)Nc1ccc(Oc2ccnc3cc(C4=CCN(C)CC4)sc23)c(F)c1,< 50 nM,< 1000 nM,50 to 250 nM,< 1000 nM
CCN(CCOC)Cc1ccc(-c2cc3nccc(Oc4ccc(NC(=S)NC(=O)Cc5ccc(F)cc5)cc4F)c3s2)cc1,< 50 nM,< 1000 nM,< 50 nM,< 1000 nM
CN1CCN(Cc2ccc(-c3cc4nccc(Oc5ccc(NC(=S)NC(=O)Cc6ccccc6)cc5F)c4s3)nc2)CC1,< 50 nM,< 1000 nM,< 50 nM,< 1000 nM

SMILES,IC50 [1],IC50 (DU145),IC50 (VEGF receptor KDR),IC50 (A549)
CN(c1ccc(NC(=S)NC(=O)Cc2ccccc2)cc1F)c1ccnc2cc(-c3cn(C)cn3)sc12,< 50 nM,< 1000 nM,> 500 nM,< 1000 nM
CN1CCN(Cc2ccc(-c3cc4nccc(Oc5ccc(NC(=S)NC(=O)Cc6ccccc6)cc5F)c4s3)cc2)CC1,< 50 nM,< 1000 nM,< 50 nM,< 1000 nM
O=C(Cc1ccccc1)NC(=S)Nc1ccc(Oc2ccnc3cc(-c4ccc(CN5CCCC5)cn4)sc23)c(F)c1,< 50 nM,< 1000 nM,< 50 nM,< 1000 nM
C#Cc1cc(F)ccc1CC(=O)NC(=S)Nc1ccc(Oc2ccnc3cc(-c4cccc[n+]4[O-])sc23)c(F)c1,< 50 nM,< 1000 nM,< 50 nM,< 1000 nM
C#Cc1ccccc1CC(=O)NC(=S)Nc1ccc(Oc2ccnc3cc(-c4nccn4C)sc23)c(F)c1,< 50 nM,< 1000 nM,< 50 nM,< 1000 nM
CN1CC=C(c2cc3nccc(Oc4ccc(NC(=S)NC(=O)Cc5ccc(F)cc5)cc4F)c3s2)CC1,< 50 nM,< 1000 nM,250 to 500 nM,< 1000 nM
C#Cc1ccccc1CC(=O)NC(=S)Nc1ccc(Oc2ccnc3cc(C4=CCN(C)CC4)sc23)c(F)c1,< 50 nM,< 1000 nM,50 to 250 nM,< 1000 nM
C#Cc1cccc(CC(=O)NC(=S)Nc2ccc(Oc3ccnc4cc(-c5cn(C)cn5)sc34)c(F)c2)c1,< 50 nM,1000 to 5000 nM,< 50 nM,1000 to 5000 nM
C#Cc1ccccc1CC(=O)NC(=S)Nc1ccc(Oc2ccnc3cc(-c4nccn4CC)sc23)c(F)c1,< 50 nM,< 1000 nM,< 50 nM,< 1000 nM
CCNC(=O)N1CCN(Cc2ccc(-c3cc4nccc(Oc5ccc(NC(=S)NC(=O)Cc6ccccc6)cc5F)c4s3)cc2)CC1,< 50 nM,< 1000 nM,< 50 nM,< 1000 nM
C#Cc1ccc(CC(=O)NC(=S)Nc2ccc(Oc3ccnc4cc(-c5nccn5C)sc34)c(F)c2)cc1F,50 to 250 nM,1000 to 5000 nM,< 50 nM,< 1000 nM
Cn1ccnc1-c1cc2nccc(Sc3ccc(NC(=S)NC(=O)Cc4ccccc4)cc3)c2s1,< 50 nM,< 1000 nM,> 500 nM,< 1000 nM
COCCNCc1cccc(-c2cc3nccc(Oc4ccc(NC(=S)NC(=O)Cc5ccc(F)cc5)cc4F)c3s2)n1,< 50 nM,< 1000 nM,250 to 500 nM,< 1000 nM
CNC(=O)N1CCN(Cc2ccc(-c3cc4nccc(Oc5ccc(NC(=S)NC(=O)Cc6ccccc6)cc5F)c4s3)cc2)CC1,< 50 nM,< 1000 nM,< 50 nM,< 1000 nM
CCn1ccnc1-c1cc2nccc(Oc3ccc(NC(=S)NC(=O)Cc4ccc(F)cc4F)cc3F)c2s1,< 50 nM,< 1000 nM,50 to 250 nM,< 1000 nM
O=C(Cc1ccccc1)NC(=S)Nc1ccc(Nc2ccnc3ccsc23)c(F)c1,50 to 250 nM,1000 to 5000 nM,> 500 nM,< 1000 nM
C#Cc1cc(F)ccc1CC(=O)NC(=S)Nc1ccc(Oc2ccnc3cc(-c4ccc(CN5CCN(C)CC5)cc4)sc23)c(F)c1,< 50 nM,< 1000 nM,< 50 nM,1000 to 5000 nM
CC(=O)N1CC=C(c2cc3nccc(Oc4ccc(NC(=S)NC(=O)Cc5ccc(F)cc5)cc4F)c3s2)CC1,< 50 nM,< 1000 nM,< 50 nM,< 1000 nM
COCCNCc1ccc(-c2cc3nccc(Oc4ccc(NC(=O)NC(=O)Cc5ccc(F)cc5)cc4F)c3s2)cc1,< 50 nM,< 1000 nM,50 to 250 nM,< 1000 nM
CNC(=O)N1CCN(Cc2ccc(-c3cc4nccc(Oc5ccc(NC(=S)NC(=O)Cc6ccc(F)cc6)cc5F)c4s3)cc2)CC1,< 50 nM,< 1000 nM,< 50 nM,< 1000 nM
C#Cc1ccccc1CC(=O)NC(=S)Nc1ccc(Oc2ccnc3cc(-c4cn(C)cn4)sc23)c(F)c1 [drawing 451],< 50 nM,< 1000 nM,< 50 nM,< 1000 nM
